Data taken from patent US10564168B2, “Method for treating male infertility based on NOX5 protein levels in sperm” (priority 2013, dated 2020).

Legend:
human spermatozoa [1] = assay: Live cell confocal imaging with fluo4-AM and DHE; assay type: cell-based; conditions: H2O2, 10 min
Description: Spermatozoa suspended in PBS-G were plated on poly-L-lysine-coated glass coverslips (2×10^5 cells/ml) in PBS-G and loaded with 6 μM fluo4-AM and 300 nM dihydroethidine (DHE) (Molecular Probes, Carlsbad, Calif.) 10 min before imaging. Ca2+ influx and superoxide production were recorded using a confocal microscope (LSM 510; Carl Zeiss MicroImaging, Inc., Thornwood, N.Y.) with a 63×/1.4 NA plan-apochromat objective. Fluo-4 and DHE fluorescence emissions were excited with dual laser at 488/543 nm attenuated to avoid photobleaching and saturation. Detection was through a 545 nm long-pass dichroic mirror and a band-pass filter at 500-530 for fluo-4 and LP560 for DHE.

human spermatozoa [2] = assay: Superoxide assay, luminol-based Diogenes chemiluminescence, whole spermatozoa; assay type: cell-based
Excerpt: (§1) Human semen samples were obtained from patient donors as a part of their clinical evaluation for fertility and reproductive health status. Portions of the samples not required for clinical analyses were de-identified and made available for the research protocols described. Under these conditions, the Institutional Review Board determined that the study is exempt from requirements for protocol approval and informed consent. Semen was collected by masturbation into sterile plastic containers and allowed to liquefy for at least 30 min before being processed. The samples were centrifuged (500 g, 15 min) to separate the seminal plasma from spermatozoa, and the pellet washed twice in phosphate-buffered normal saline pH 7 with 10 mM glucose (PBS-G). The spermatozoa were then counted in a hemocytometer chamber, resuspended in PBS-G at 10^9/ml, and used for superoxide assays. Sperm samples containing leukocytes detected by microscopic examination were excluded from the study. For selected experiments, motile spermatozoa were collected using the swim-up procedure (Vijayakumar et al. (1986) Arch. Androl. 17, 223-230; Parrish and Foote (1987) J. Androl. 8, 259-266). Briefly, the spermatozoa were sedimented by centrifugation (500 g, 15 min) and the tube was then incubated upright for 60 min at 37° C. Motile spermatozoa that progressed from the pellet into the supernatant (swim-up fraction) were collected by aspiration and counted.
(§2) Superoxide generation was measured using a luminol-based chemiluminescence assay (Diogenes reagent, National Diagnostics, Atlanta, Ga.). […] Spermatozoa were suspended at 10^9/ml in PBS-G. A 100 μl aliquot of the Diogenes reagent was mixed with 2×10^7 spermatozoa and incubated at 37° C. for 2-4 minutes. Superoxide generation was measured at baseline and after stimulation with ionomycin (1 μM), phorbol myristate acetate (PMA, 1 μg/ml), or H2O2 (100 μM and other concentrations as indicated). Chemiluminescence was measured every 30-60 sec for up to 10-15 min using a Clarity™ BioTek luminometer and an integration time of 5 sec.
Spermatozoa were pre-incubated for 5 min prior to the superoxide assay with 400 U/ml superoxide dismutase (SOD), 10 μM diphenylene iodonium (DPI), or 100 μM 1,2-Bis (2-aminophenoxy) ethane-N,N,N′,N′-tetraacetic acid (BAPTA). […] In some experiments, cells were pre-exposed to the NOX inhibitor 2-(2-chlorophenyl)-4-methyl-5-(pyridin-2-ylmethyl)-1H-pyrazolo[4,3-c]pyridine-3,6(2H,5H)-dione (GKT136901, 0.5 μM and other concentrations as indicated) for 10 min before exposure to either H2O2 or PMA.

human spermatozoa [3] = assay: Swim-up procedure, sperm motility; assay type: cell-based; conditions: 100 μM H2O2, 10 min
Excerpt: as §1

c-Abl = assay: Phospho-c-Abl immunoblot and immunostaining of spermatozoa; assay type: cell-based, human; conditions: 100 μM H2O2, 10 min
Description: Spermatozoa resuspended in lysis buffer A (20 mM HEPES, pH 7.9; 350 mM NaCl; 0.5 mM EDTA; 0.5 mM EGTA; 1 mM MgCl2; 10% glycerol (v/v); 1% Nonidet P-40 (v/v); 10 mM NaF; 0.1 mM Na3VO4 [orthovanadate], 8 mM β-glycerophosphate; phosphatase inhibitor cocktail I and II [Sigma]; and protease inhibitor cocktail [Roche, Mannheim, Germany]) were sonicated 3 times for 5 sec each (20 watts). Lysates were cleared by centrifugation (10,000 g, 15 min). Aliquots containing 60-200 μg of protein were separated on 4-20% SDS polyacrylamide gradient gels and transferred to polyvinylidene difluoride (PVDF) membranes. […]
For immunohistological analyses, a drop of spermatozoa suspended in PBS-G was placed on a poly-L-lysine-coated glass slide, fixed in 4% (w/v) paraformaldehyde and permeabilized with 0.1% Triton X-100 (v/v) for 15 min at 4° C. […] Protein expression was visualized on a fluorescence microscope (Zeiss, Thornwood, N.Y.). […]

K562/NOX5 cells = assay: Superoxide production by K562/NOX5 cells; assay type: cell-based, human; conditions: 1 mM ZnCl2, K562/NOX5 cells
Description: as §2
Human leukemia cells stably transfected with an empty vector (K562 cells) or a vector encoding for NOX5 (K562/NOX5) were grown in RPMI medium supplemented with 10% (v/v) fetal bovine serum, plus 100 U/ml penicillin and 100 μg/ml streptomycin and the appropriate selection antibiotic. Cells in the logarithmic phase of growth were transfected with a mix of HV1 siRNA (Sigma) or with scrambled siRNA (Sigma) using the Neon system (Invitrogen, Carlsbad, Calif.) according to the manufacturer's recommendations. […]

SMILES | cytosolic Ca2+ levels and superoxide fluorescence (human spermatozoa [1]) | dose dependence of induction of superoxide generation (human spermatozoa [2]; 1 to 500 μM H2O2) | H2O2-stimulated superoxide production by hypermotile spermatozoa of the upper fraction after spontaneous swim-up (human spermatozoa [2]; compared with pre-swim-up cells) | onset of superoxide burst after peroxide addition (human spermatozoa [2]; human spermatozoa) [min] | time to maximal superoxide activity levels (human spermatozoa [2]; human spermatozoa, varying among donors) [min] | induction of superoxide production by spermatozoa (human spermatozoa [2]; ionomycin 1 μM, PMA 1 μg/ml or H2O2 100 μM, 10 min) | effect on number of sperm in the swim-up fraction (human spermatozoa [3]) | phosphorylation of c-Abl (c-Abl) | sensitivity of superoxide production induced by H2O2, PMA, or ionomycin (human spermatozoa [2]; 1 mM ZnCl2, 5 min pre-incubation, human spermatozoa) | decrease of superoxide production stimulated by ionomycin, PMA, or H2O2 (K562/NOX5 cells)
OO [H2O2] | increases in cytosolic Ca2+ levels | dose-dependent | did not produce superoxide | 1 to 2 | 5 to 10 | induced a marked burst in superoxide production | increase in the number of sperm in the swim-up fraction | induced the phosphorylation of c-Abl on tyrosine 245 |  | 
[Cl-].[Cl-].[Zn+2] [ZnCl2] |  |  |  |  |  |  |  |  | Zn2+-sensitive | 50-70%
